Laboratory results taken from patent US7691844B2, “Nonpeptide substituted spirobenzoazepines as vasopressin antagonists” (Ortho-McNeil Pharmaceutical, Inc., priority 2000, dated 2010).

Legend:
human V2 receptor = human V2 receptor (Homo sapiens, UniProt P30518); test: In-vitro receptor binding assay (3H-arginine-8-vasopressin), V2; conditions: for inhibition at 1 µM / inhibition at 0.1 µM: read-out: Receptor Binding V2 (% Inh. @ concentration in μM)
Protocol: (§1) (A) In-Vitro Binding Assay […] The reaction plates are allowed to sit at room temperature for one hour. The samples are filtered through Unifilter GF/C plates (presoaked in 0.3 polyethyleneimine). The plates are washed 5 times with cold physiological saline containing 0.05% Tween 20. After drying, the bottom of the filter plates are sealed and 0.025 ml of Microscint-20 is added to each filter. The top of the plate is sealed, and the plate is counted. Non-specific binding is determined by the addition of 1.25 μM […]-vasopressin in those wells. % Inh. is calculated as follows: […]

V1a = V1a (Homo sapiens, UniProt P37288); test: In-vitro receptor binding assay (3H-arginine-8-vasopressin), V1a; conditions: for inhibition at 0.1 µM: read-out: Receptor Binding V1a (% Inh. @ concentration in μM)
Protocol: as §1

human V2 receptor, sequence (P30518 whole entry): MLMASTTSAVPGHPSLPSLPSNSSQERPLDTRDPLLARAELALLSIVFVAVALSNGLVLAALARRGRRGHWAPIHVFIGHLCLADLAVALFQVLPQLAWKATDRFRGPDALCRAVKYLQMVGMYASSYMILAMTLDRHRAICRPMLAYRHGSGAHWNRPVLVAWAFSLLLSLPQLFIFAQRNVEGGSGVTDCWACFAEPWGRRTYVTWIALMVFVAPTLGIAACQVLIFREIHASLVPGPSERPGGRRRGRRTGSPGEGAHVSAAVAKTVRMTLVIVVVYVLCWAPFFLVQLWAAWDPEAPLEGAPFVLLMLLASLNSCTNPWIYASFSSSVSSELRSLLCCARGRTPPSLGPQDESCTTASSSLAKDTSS
V1a, sequence (P37288 whole entry): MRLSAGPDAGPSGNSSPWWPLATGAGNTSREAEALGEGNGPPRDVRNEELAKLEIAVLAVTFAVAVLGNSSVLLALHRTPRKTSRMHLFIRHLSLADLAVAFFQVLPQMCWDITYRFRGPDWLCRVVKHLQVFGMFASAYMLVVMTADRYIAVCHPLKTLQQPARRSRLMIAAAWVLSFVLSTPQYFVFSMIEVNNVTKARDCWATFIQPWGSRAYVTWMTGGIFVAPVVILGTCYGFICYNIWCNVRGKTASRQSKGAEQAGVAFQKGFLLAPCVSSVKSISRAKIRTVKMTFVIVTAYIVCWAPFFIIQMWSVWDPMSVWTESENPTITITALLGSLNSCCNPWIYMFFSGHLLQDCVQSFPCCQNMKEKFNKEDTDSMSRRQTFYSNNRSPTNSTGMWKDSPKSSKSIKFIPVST

Row | IC50 (human V2 receptor) [µM] | IC50 (V1a) [µM] | inhibition at 1 µM (human V2 receptor; @ 1 μM) [%] | Structure (SMILES) | also measured
1 | 0.2 | 0.03 |  | COc1ccccc1C(=O)Nc1ccc(C(=O)N2CCC3(C=CCCC3)Cc3ccccc32)cc1 (stereo not drawn) [Compound 71] | 
2 |  | 0.04 |  | CN(C)c1ccc(C(=O)N2CCC3(C=CCCC3)Cc3cc(Cl)c(Cl)cc32)cc1 (stereo not drawn) [Compound 72] | Receptor Binding V2 (% Inh. @ concentration in μM) (human V2 receptor; @ 1 μM): 16% @ 1
3 |  | 0.09 |  | CCCCOc1ccc(C(=O)N2CCC3(C=CCCC3)Cc3cc(Cl)c(Cl)cc32)cc1 (stereo not drawn) [Compound 73] | Receptor Binding V2 (% Inh. @ concentration in μM) (human V2 receptor; @ 1 μM): 10% @ 1
4 |  | 0.19 |  | COc1ccc(C(=O)N2CCC3(C=CCCC3)Cc3ccccc32)c(OC)c1 (stereo not drawn) [Compound 74] | Receptor Binding V2 (% Inh. @ concentration in μM) (human V2 receptor; @ 1 μM): 27% @ 1
5 |  | 0.07 | 1 | COc1ccc(C(=O)N2CCC3(C=CCCC3)Cc3ccccc32)cc1OC (stereo not drawn) [Compound 75] | 
6 |  | 1 | 0 | CCCCCCCOc1ccc(C(=O)N2CCC3(C=CCCC3)Cc3ccccc32)cc1 (stereo not drawn) [Compound 76] | 
7 |  | 0.9 | 16 | O=C(c1ccc(OC(F)(F)F)cc1)N1CCC2(C=CCCC2)Cc2ccccc21 (stereo not drawn) [Compound 77] | 
8 |  | 0.51 | 3 | O=C(c1ccc(O)cc1)N1CCC2(C=CCCC2)Cc2ccccc21 (stereo not drawn) [Compound 78] | 
9 |  | 0.19 | 19 | CC(C)Nc1ccc(C(=O)N2CCC3(C=CCCC3)Cc3ccccc32)cc1 (stereo not drawn) [Compound 79] | 
10 |  | 0.14 | 47 | Cc1ccc(C(=O)Nc2ccc(C(=O)N3CCC4(C=CCCC4)Cc4ccccc43)cc2)cc1C (stereo not drawn) [Compound 81] | 
11 |  | 0.02 | 41 | O=C(Nc1ccccc1)c1ccc(C(=O)N2CCC3(C=CCCC3)Cc3ccccc32)cc1 (stereo not drawn) [Compound 82, 4-(4-Anilinocarbonylbenzoyl)-4-aza-[6,5]-spiro-[5,6]-benzododec-2′-ene] | 
12 |  | 0.17 | 25 | O=C(Nc1ccccc1)Nc1ccc(C(=O)N2CCC3(C=CCCC3)Cc3ccccc32)cc1 (stereo not drawn) [Compound 83] | 
13 |  |  |  | O=C(Nc1ccc(C(=O)N2CCC3(C=CCCC3)Cc3ccccc32)cc1)c1ccc(-c2ccccc2)cc1 (stereo not drawn) [Compound 84] | Receptor Binding V2 (% Inh. @ concentration in μM) (human V2 receptor; @ 1 μM): 2% @ 1; Receptor Binding V1a (% Inh. @ concentration in μM) (V1a; @ 1 μM): 35% @ 1
14 | 0.38 | 0.05 |  | Cc1cccc(C(=O)Nc2ccc(C(=O)N3CCC4(C=CCCC4)Cc4ccccc43)cc2)c1 (stereo not drawn) [Compound 85] | 
15 |  | 0.065 | 10 | CC(C)COc1ccc(C(=O)N2CCC3(C=CCCC3)Cc3ccccc32)cc1 (stereo not drawn) [Compound 86] | 
16 |  | 0.074 | 47 | Cc1ccc(C(=O)Nc2ccc(C(=O)N3CCC4(C=CCCC4)Cc4ccccc43)cc2)cc1 (stereo not drawn) [Compound 87] | 
17 |  | 0.066 | 0 | CSc1ccc(C(=O)N2CCC3(C=CCCC3)Cc3ccccc32)cc1 (stereo not drawn) [Compound 92] | 
18 |  | 0.015 | 26 | CSc1cccc(C(=O)Nc2ccc(C(=O)N3CCC4(C=CCCC4)Cc4ccccc43)cc2)c1 (stereo not drawn) [Compound 93] | 
19 |  | 0.02 | 10 | C[S+]([O-])c1ccc(C(=O)N2CCC3(C=CCCC3)Cc3ccccc32)cc1 (stereo not drawn) [Compound 94] | 
20 |  |  |  | C[S+]([O-])c1ccc(C(=O)Nc2ccc(C(=O)N3CCC4(C=CCCC4)Cc4ccccc43)cc2)cc1 (stereo not drawn) [Compound 95] | Receptor Binding V2 (% Inh. @ concentration in μM) (human V2 receptor; @ 1 μM): 0% @ 1; Receptor Binding V1a (% Inh. @ concentration in μM) (V1a; @ 1 μM): 27% @ 1
21 | 0.18 | 0.012 |  | O=C(Nc1ccc(C(=O)N2CCC3(C=CCCC3)Cc3ccccc32)cc1)c1ccccc1Cl (stereo not drawn) [Compound 96] | 
22 | 0.2 | 0.027 |  | Cc1ccccc1NC(=O)c1ccc(C(=O)N2CCC3(C=CCCC3)Cc3ccccc32)cc1 (stereo not drawn) [Compound 98] | 
23 | 0.159 | 0.046 |  | O=C(Nc1ccc(C(=O)N2CCC3(C=CCCC3)Cc3ccccc32)cc1)c1c(Cl)cccc1Cl (stereo not drawn) [Compound 102] | 
24 | 0.274 | 0.016 |  | O=C(Nc1ccc(C(=O)N2CCC3(C=CCCC3)Cc3ccccc32)cc1)c1ccc(Cl)cc1Cl (stereo not drawn) [Compound 103] | 
25 |  | 0.051 | 36 | O=C(Nc1ccc(C(=O)N2CCC3(C=CCCC3)Cc3ccccc32)cc1)c1ccncc1 (stereo not drawn) [Compound 104] | 
26 |  | 0.06 | 21 | O=C(c1ccccc1F)N1CCC2(C=CCCC2)Cc2ccccc21 (stereo not drawn) [Compound 107] | 
27 | 0.045 | 0.8 |  | Cc1ccc(F)cc1C(=O)Nc1ccc(C(=O)N2CCC3(C=CCCC3)Cc3ccccc32)c(Cl)c1 (stereo not drawn) [Compound 111] | 

Row | IC50 (human V2 receptor) [µM] | IC50 (V1a) [µM] | inhibition at 1 µM (human V2 receptor; @ 1 μM) [%] | Structure (SMILES) | also measured
28 | 0.08 | 0.062 |  | Cc1ccccc1C(=O)Nc1ccc(C(=O)N2CCC3(C=CCCC3)Cc3ccccc32)c(Cl)c1 (stereo not drawn) [Compound 112] | 
29 | 0.095 | 0.09 |  | Cc1ccc(-c2ccccc2C(=O)Nc2ccc(C(=O)N3CCC4(C=CCCC4)Cc4ccccc43)cc2)cc1 (stereo not drawn) [Compound 114] | 
30 |  | 0.019 |  | COc1cc(NC(=O)c2ccccc2F)ccc1C(=O)N1CCC2(C=CCCC2)Cc2ccccc21 (stereo not drawn) [Compound 115] | inhibition at 0.1 µM (human V2 receptor; @ 0.1 μM): 37%
31 | 0.091 | 0.019 |  | COc1cc(NC(=O)c2cc(F)ccc2C)ccc1C(=O)N1CCC2(C=CCCC2)Cc2ccccc21 (stereo not drawn) [Compound 116] | 
32 | 0.1 |  |  | Cc1ccc(-c2ccccc2C(=O)Nc2ccc(C(=O)N3CCC4(C=CCCC4)Cc4ccccc43)c(Cl)c2)cc1 (stereo not drawn) [Compound 117] | Receptor Binding V1a (% Inh. @ concentration in μM) (V1a; @ 0.1 μM): 30% @ 0.1
33 | 0.085 |  |  | O=C(Nc1ccc(C(=O)N2CCC3(C=CCCC3)Cc3ccccc32)c(Cl)c1)c1ccccc1-c1ccccc1 (stereo not drawn) [Compound 118] | inhibition at 0.1 µM (V1a; @ 0.1 μM): 40%
34 |  | 0.042 |  | O=C(Nc1ccc(C(=O)N2Cc3ccccc3CC3(C=CCCC3)C2)cc1)c1ccccc1F (stereo not drawn) [Compound 128, 4-(2-Fluorobenzoyl-4-aminobenzoyl)-3-aza-[6,5]-spiro-[5,6]-benzododec-2′-ene] | inhibition at 0.1 µM (human V2 receptor; @ 0.1 μM): 33%
35 |  |  |  | O=C(Nc1ccc(C(=O)C2Cc3ccccc3CC3(C=CCCC3)C2)cc1)c1ccccc1-c1ccccc1 (stereo not drawn) [Compound 129] | Receptor Binding V2 (% Inh. @ concentration in μM) (human V2 receptor; @ 0.1 μM): 9% @ 0.1; Receptor Binding V1a (% Inh. @ concentration in μM) (V1a; @ 0.1 μM): 30% @ 0.1
36 |  | 0.047 |  | Cc1ccccc1C(=O)Nc1ccc(C(=O)C2Cc3ccccc3CC3(C=CCCC3)C2)cc1 (stereo not drawn) [Compound 130] | Receptor Binding V2 (% Inh. @ concentration in μM) (human V2 receptor; @ 0.1 μM): 15% @ 0.1
37 |  | 0.1 |  | Cc1ccc(F)cc1C(=O)Nc1ccc(C(=O)C2Cc3ccccc3CC3(C=CCCC3)C2)cc1 (stereo not drawn) [Compound 131] | Receptor Binding V2 (% Inh. @ concentration in μM) (human V2 receptor; @ 0.1 μM): 3% @ 0.1
38 |  | 0.015 |  | COC(=O)C1=CC2(CC1)CCN(C(=O)c1ccc(NC(=O)c3ccccc3F)cc1)c1ccccc1C2 (stereo not drawn) [Compound 133] | inhibition at 0.1 µM (human V2 receptor; @ 0.1 μM): 23%
39 |  |  |  | COC(=O)C1=CC2(CC1)CCN(C(=O)c1ccc(N)cc1)c1ccccc1C2 (stereo not drawn) [Compound 134] | inhibition at 0.1 µM (human V2 receptor; @ 0.1 μM): 16%; inhibition at 0.1 µM (V1a; @ 0.1 μM): 21%
40 | 0.024 | 0.013 |  | O=C(NCCN1CCCC1)C1=CC2(CC1)CCN(C(=O)c1ccc(NC(=O)c3ccccc3-c3ccccc3)cc1)c1ccccc1C2 (stereo not drawn) [Compound 135] | 
41 | 0.052 |  |  | Cc1ccc(F)cc1C(=O)Nc1ccc(C(=O)N2CCC3(C=C(C(=O)NCCN(C)C)CC3)Cc3ccccc32)c(Cl)c1 (stereo not drawn) [Compound 136] | inhibition at 0.1 µM (V1a; @ 0.1 μM): 60%
42 |  |  |  | Cc1ccc(F)cc1C(=O)Nc1ccc(C(=O)N2CCC3(C=C(CO)CC3)Cc3ccccc32)c(Cl)c1 (stereo not drawn) [Compound 137] | inhibition at 0.1 µM (human V2 receptor; @ 0.1 μM): 66%; inhibition at 0.1 µM (V1a; @ 0.1 μM): 53%
43 |  |  |  | Cc1ccc(F)cc1C(=O)Nc1ccc(C(=O)N2CCC3(C=C(C=O)CC3)Cc3ccccc32)c(Cl)c1 (stereo not drawn) [Compound 138] | inhibition at 0.1 µM (human V2 receptor; @ 0.1 μM): 57%; inhibition at 0.1 µM (V1a; @ 0.1 μM): 35%
44 |  |  |  | CNCC1=CC2(CC1)CCN(C(=O)c1ccc(NC(=O)c3cc(F)ccc3C)cc1Cl)c1ccccc1C2 (stereo not drawn) [Compound 139] | inhibition at 0.1 µM (human V2 receptor; @ 0.1 μM): 17%; inhibition at 0.1 µM (V1a; @ 0.1 μM): 0%
45 |  |  |  | COCCN1CCN(CC2=CC3(CC2)CCN(C(=O)c2ccc(NC(=O)c4cc(F)ccc4C)cc2Cl)c2ccccc2C3)CC1 (stereo not drawn) [Compound 140] | inhibition at 0.1 µM (human V2 receptor; @ 0.1 μM): 65%; inhibition at 0.1 µM (V1a; @ 0.1 μM): 41%
46 | 0.056 |  |  | Cc1ccc(F)cc1C(=O)Nc1ccc(C(=O)N2CCC3(C=C(CN4CCN(CCN5CCOCC5)CC4)CC3)Cc3ccccc32)c(Cl)c1 (stereo not drawn) [Compound 141] | inhibition at 0.1 µM (V1a; @ 0.1 μM): 44%
47 |  |  |  | Cc1ccc(F)cc1C(=O)Nc1ccc(C(=O)N2CCC3(C=C(CN4CCN(c5ccncc5)CC4)CC3)Cc3ccccc32)c(Cl)c1 (stereo not drawn) [Compound 142] | inhibition at 0.1 µM (human V2 receptor; @ 0.1 μM): 69%; inhibition at 0.1 µM (V1a; @ 0.1 μM): 25%
48 |  |  |  | Cc1ccc(F)cc1C(=O)Nc1ccc(C(=O)N2CCC3(C=C(C(=O)O)CC3)Cc3ccccc32)c(Cl)c1 (stereo not drawn) [Compound 143] | inhibition at 0.1 µM (human V2 receptor; @ 0.1 μM): 67%; inhibition at 0.1 µM (V1a; @ 0.1 μM): 10%
49 |  | 0.008 |  | O=CC1=C[C@@]2(CC1)CCN(C(=O)c1ccc(NC(=O)c3ccccc3F)cc1Cl)c1ccccc1C2 [Compound 144] | inhibition at 0.1 µM (human V2 receptor; @ 0.1 μM): 9%
50 | 0.066 |  |  | O=C(Nc1ccc(C(=O)N2CCC3(C=C(C(=O)N4CCN(c5ccncc5)CC4)CC3)Cc3ccccc32)cc1)c1ccccc1-c1ccccc1 (stereo not drawn) [Compound 145] | inhibition at 0.1 µM (V1a; @ 0.1 μM): 66%
51 |  |  |  | O=C(Nc1ccc(C(=O)N2CCC3(C=C(C(=O)N(CCN4CCOCC4)CCN4CCOCC4)CC3)Cc3ccccc32)cc1)c1ccccc1-c1ccccc1 (stereo not drawn) [Compound 146] | inhibition at 0.1 µM (human V2 receptor; @ 0.1 μM): 39%; inhibition at 0.1 µM (V1a; @ 0.1 μM): 48%
52 |  | 0.56 | 54 | COC(=O)c1ccc(C(=O)N2Cc3ccccc3CC3(C=CCCC3)C2)cc1 (stereo not drawn) [Compound 149] | 
53 |  | 0.042 | 20 | Cc1ccn(-c2ccc(C(=O)N3CCC4(C=CCCC4)Cc4ccccc43)cc2-n2ccc(C)n2)n1 (stereo not drawn) [Compound 151] | 

Row | Structure (SMILES) | IC50 (human V2 receptor) [µM] | IC50 (V1a) [µM] | inhibition at 1 µM (human V2 receptor; @ 1 μM) [%] | also measured
54 | Cc1ncccc1C(=O)Nc1ccc(C(=O)N2CCC3(C=CCCC3)Cc3ccccc32)cc1 (stereo not drawn) [Compound 105] | 1 | 0.035 |  | 
